Assay [1] concerns the target T1, Lcc13 (Lentinula edodes, UniProt A0A0P0ZBE8).
T1 construct: native, partially purified from sawdust medium (fraction P2-2), 61 kDa on SDS-PAGE
T1 sequence (A0A0P0ZBE8 20-520): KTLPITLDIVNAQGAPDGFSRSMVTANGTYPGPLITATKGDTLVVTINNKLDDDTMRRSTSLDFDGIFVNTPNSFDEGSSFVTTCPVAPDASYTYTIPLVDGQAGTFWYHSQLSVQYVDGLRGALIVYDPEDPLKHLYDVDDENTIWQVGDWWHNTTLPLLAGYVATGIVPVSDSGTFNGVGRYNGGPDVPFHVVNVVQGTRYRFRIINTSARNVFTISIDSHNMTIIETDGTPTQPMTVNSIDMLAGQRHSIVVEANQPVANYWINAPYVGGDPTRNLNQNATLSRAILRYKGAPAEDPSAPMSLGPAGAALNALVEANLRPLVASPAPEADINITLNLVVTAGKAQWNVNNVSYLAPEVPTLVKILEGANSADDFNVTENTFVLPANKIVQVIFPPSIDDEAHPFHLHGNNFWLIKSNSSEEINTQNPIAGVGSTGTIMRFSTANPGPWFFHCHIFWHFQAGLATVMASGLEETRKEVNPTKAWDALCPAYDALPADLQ
Put plainly: ABTS oxidation, absorbance at […] nm. The assay is classed as biochemical. As to conditions: 1.25 mM ABTS; 50 mM sodium citrate pH 3.0; partially purified fraction P2-2.

In assay [2] the target is T2, Lcc5 (Lentinula edodes, UniProt R9WU11).
T2 construct: native, partially purified from sawdust medium (fraction P1-1), 68 kDa on SDS-PAGE
T2 sequence (R9WU11 22-515): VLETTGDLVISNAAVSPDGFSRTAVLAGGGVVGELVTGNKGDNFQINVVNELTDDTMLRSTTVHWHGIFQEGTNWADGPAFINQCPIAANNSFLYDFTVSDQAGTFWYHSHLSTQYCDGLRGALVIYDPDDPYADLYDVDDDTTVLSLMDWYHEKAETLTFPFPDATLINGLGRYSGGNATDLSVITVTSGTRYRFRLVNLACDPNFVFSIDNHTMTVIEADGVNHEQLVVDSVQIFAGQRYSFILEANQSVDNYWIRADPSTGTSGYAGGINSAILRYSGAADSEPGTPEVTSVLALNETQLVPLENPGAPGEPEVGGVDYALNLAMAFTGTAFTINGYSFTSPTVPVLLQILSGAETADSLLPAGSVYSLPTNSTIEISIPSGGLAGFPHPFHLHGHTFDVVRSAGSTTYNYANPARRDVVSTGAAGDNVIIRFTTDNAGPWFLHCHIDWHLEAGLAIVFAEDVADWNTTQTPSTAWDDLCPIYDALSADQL
The assay is described as follows: ABTS oxidation, absorbance at […] nm. It is filed as biochemical. As to conditions: 1.25 mM ABTS; 50 mM sodium citrate pH 3.0; partially purified fraction P1-1.

The values below come from publication PMC10130320, “Extracellular enzymes secreted in the mycelial block of Lentinula edodes during hyphal growth” (AMB Express, 2023).

Structures can show the parent of a compound that is named as a salt.

Consider `CCn1c(=NN=c2sc3cc(S(=O)(=O)O)ccc3n2CC)sc2cc(S(=O)(=O)O)ccc21` [ABTS, 2,2-azino-bis (3-ethylbenzothiazoline-6-sulfonic acid) diammonium salt], for which the “ABTS oxidation, absorbance at 420 nm” value in assay [1] and in assay [2] was “the Lcc purification was performed based on the enzymatic activity for ABTS” in each case.
